The source made the active and inactive calls. No rule for the calls is given here.
Tested on: CCRIS mutagenicity, Ames/micronucleus/aberration tests
Assay: CCRIS mutagenicity studies
[1] = Test System: AMES SALMONELLA TYPHIMURIUM, Strain/Indicator: TA98, Metabolic Activation: NONE, Method: PREINCUBATION
[2] = Test System: AMES SALMONELLA TYPHIMURIUM, Strain/Indicator: TA100, Metabolic Activation: NONE, Method: PREINCUBATION
[3] = Test System: AMES SALMONELLA TYPHIMURIUM, Strain/Indicator: TA98, Metabolic Activation: NONE, Method: STANDARD PLATE
[4] = Test System: AMES SALMONELLA TYPHIMURIUM, Strain/Indicator: TA98, Metabolic Activation: RAT, LIVER, S-9, AROCLOR 1254, Method: STANDARD PLATE
[5] = Test System: AMES SALMONELLA TYPHIMURIUM, Strain/Indicator: TA100, Metabolic Activation: NONE, Method: STANDARD PLATE
[6] = Test System: AMES SALMONELLA TYPHIMURIUM, Strain/Indicator: TA100, Metabolic Activation: RAT, LIVER, S-9, AROCLOR 1254, Method: STANDARD PLATE

With `C=C(C)C#N` the mutagenic call (Test System: AMES SALMONELLA TYPHIMURIUM, Strain/Indicator: TA97, Metabolic Activation: HAMSTER, LIVER, S-9, AROCLOR 1254 (10%), Method: PREINCUBATION) was “inactive; negative”, the mutagenic call (Test System: AMES SALMONELLA TYPHIMURIUM, Strain/Indicator: TA97, Metabolic Activation: HAMSTER, LIVER, S-9, AROCLOR 1254 (30%), Method: PREINCUBATION) was “inactive; negative” and the mutagenic call (Test System: AMES SALMONELLA TYPHIMURIUM, Strain/Indicator: TA97, Metabolic Activation: NONE, Method: PREINCUBATION) was “inactive; negative”. The mutagenic call (Test System: AMES SALMONELLA TYPHIMURIUM, Strain/Indicator: TA97, Metabolic Activation: RAT, LIVER, S-9, AROCLOR 1254 (10 OR 30%), Method: PREINCUBATION) was “inactive; negative”, the mutagenic call (Test System: AMES SALMONELLA TYPHIMURIUM, Strain/Indicator: TA98, Metabolic Activation: HAMSTER, LIVER, S-9, AROCLOR 1254 (10%), Method: PREINCUBATION) was “inactive; negative” and the mutagenic call (Test System: AMES SALMONELLA TYPHIMURIUM, Strain/Indicator: TA98, Metabolic Activation: HAMSTER, LIVER, S-9, AROCLOR 1254 (30%), Method: PREINCUBATION) was “inactive; negative”. For the same compound, the mutagenic call [1] was “inactive; negative”, the mutagenic call (Test System: AMES SALMONELLA TYPHIMURIUM, Strain/Indicator: TA98, Metabolic Activation: RAT, LIVER, S-9, AROCLOR 1254 (10%), Method: PREINCUBATION) was “inactive; negative” and the mutagenic call (Test System: AMES SALMONELLA TYPHIMURIUM, Strain/Indicator: TA100, Metabolic Activation: HAMSTER, LIVER, S-9, AROCLOR 1254 (10%), Method: PREINCUBATION) was “inactive; negative”. The mutagenic call (Test System: AMES SALMONELLA TYPHIMURIUM, Strain/Indicator: TA100, Metabolic Activation: HAMSTER, LIVER, S-9, AROCLOR 1254 (30%), Method: PREINCUBATION) was “inactive; negative”, the mutagenic call [2] was “inactive; negative” and the mutagenic call (Test System: AMES SALMONELLA TYPHIMURIUM, Strain/Indicator: TA100, Metabolic Activation: RAT, LIVER, S-9, AROCLOR 1254 (10 OR 30%), Method: PREINCUBATION) was “inactive; negative”. For the same compound, the mutagenic call (Test System: AMES SALMONELLA TYPHIMURIUM, Strain/Indicator: TA1535, Metabolic Activation: HAMSTER, LIVER, S-9, AROCLOR 1254 (10%), Method: PREINCUBATION) was “inactive; negative”, the mutagenic call (Test System: AMES SALMONELLA TYPHIMURIUM, Strain/Indicator: TA1535, Metabolic Activation: HAMSTER, LIVER, S-9, AROCLOR 1254 (30%), Method: PREINCUBATION) was “inactive; negative” and the mutagenic call (Test System: AMES SALMONELLA TYPHIMURIUM, Strain/Indicator: TA1535, Metabolic Activation: NONE, Method: PREINCUBATION) was “inactive; negative”. The mutagenic call (Test System: AMES SALMONELLA TYPHIMURIUM, Strain/Indicator: TA1535, Metabolic Activation: RAT, LIVER, S-9, AROCLOR 1254 (10 OR 30%), Method: PREINCUBATION) was “inactive; negative”, the mutagenic call (Test System: AMES SALMONELLA TYPHIMURIUM, Strain/Indicator: TA1537, Metabolic Activation: HAMSTER, LIVER, S-9, AROCLOR 1254 (10%), Method: PREINCUBATION) was “inactive; negative” and the mutagenic call (Test System: AMES SALMONELLA TYPHIMURIUM, Strain/Indicator: TA1537, Metabolic Activation: HAMSTER, LIVER, S-9, AROCLOR 1254 (30%), Method: PREINCUBATION) was “inactive; negative”. For the same compound, the mutagenic call (Test System: AMES SALMONELLA TYPHIMURIUM, Strain/Indicator: TA1537, Metabolic Activation: NONE, Method: PREINCUBATION) was “inactive; negative”, the mutagenic call (Test System: AMES SALMONELLA TYPHIMURIUM, Strain/Indicator: TA1537, Metabolic Activation: RAT, LIVER, S-9, AROCLOR 1254 (10 OR 30%), Method: PREINCUBATION) was “inactive; negative” and the mutagenic call (Test System: UDS HUMAN HEPATOMA HEPG2 CELLS, Strain/Indicator: THY INCORP, Metabolic Activation: NONE, Method: LIQUID SCINTILLATION COUNTING) was “active; positive”.

For `O=C(O)C=C(C(Cl)Cl)C(Cl)Cl`, the mutagenic call [1] was “inactive; negative”, the mutagenic call [2] was “active; positive” and the mutagenic call (Test System: AMES SALMONELLA TYPHIMURIUM, Strain/Indicator: TA104, Metabolic Activation: NONE, Method: PREINCUBATION) was “inactive; negative”.

For `CN(C)c1ccc(C(=C2C=CC(=N)C=C2)c2ccc(N(C)C)cc2)cc1`, the mutagenic call (Test System: AMES SALMONELLA TYPHIMURIUM, Strain/Indicator: TA97, Metabolic Activation: NONE, Method: STANDARD PLATE) was “inactive; negative”, the mutagenic call (Test System: AMES SALMONELLA TYPHIMURIUM, Strain/Indicator: TA97, Metabolic Activation: RAT, LIVER, S-9, AROCLOR 1254, Method: STANDARD PLATE) was “inactive; negative” and the mutagenic call [3] was “inactive; negative”. For the same compound, the mutagenic call [4] was “inactive; negative”, the mutagenic call [5] was “inactive; negative” and the mutagenic call [6] was “inactive; negative”. For the same compound, the mutagenic call (Test System: AMES SALMONELLA TYPHIMURIUM, Strain/Indicator: TA104, Metabolic Activation: NONE, Method: STANDARD PLATE) was “inactive; negative” and the mutagenic call (Test System: AMES SALMONELLA TYPHIMURIUM, Strain/Indicator: TA104, Metabolic Activation: RAT, LIVER, S-9, AROCLOR 1254, Method: STANDARD PLATE) was “inactive; negative”.

For `CN(N=O)C(=O)Nc1ccc(Br)cc1`, the mutagenic call (End Point: IN VITRO CHROMOSOMAL ABERRATIONS, Test System: CHINESE HAMSTER V79-E CELLS, Metabolic Activation: NONE) was “active; weakly positive”.

With `CC(=O)Nc1cccc2ncccc12` the mutagenic call [1] was “inactive; negative”, the mutagenic call (Test System: AMES SALMONELLA TYPHIMURIUM, Strain/Indicator: TA98, Metabolic Activation: RAT, LIVER, S-9, KANECHLOR 500, Method: PREINCUBATION) was “inactive; negative” and the mutagenic call [2] was “inactive; negative”. For the same compound, the mutagenic call (Test System: AMES SALMONELLA TYPHIMURIUM, Strain/Indicator: TA100, Metabolic Activation: RAT, LIVER, S-9, KANECHLOR 500, Method: PREINCUBATION) was “inactive; negative”.

`CCCC(=O)Nc1ccc(OCC(O)CNC(C)C)c(C(C)=O)c1` (centres undefined) was tested, and the mutagenic call (Test System: AMES SALMONELLA TYPHIMURIUM, Strain/Indicator: TA98, Metabolic Activation: NONE) was “inactive; negative”, the mutagenic call [3] was “inactive; negative” and the mutagenic call (Test System: AMES SALMONELLA TYPHIMURIUM, Strain/Indicator: TA98, Metabolic Activation: RAT, LIVER, S-9, AROCLOR 1254) was “inactive; negative”. The mutagenic call [4] was “inactive; negative”, the mutagenic call (Test System: AMES SALMONELLA TYPHIMURIUM, Strain/Indicator: TA100, Metabolic Activation: NONE) was “inactive; negative” and the mutagenic call [5] was “inactive; negative”. The mutagenic call (Test System: AMES SALMONELLA TYPHIMURIUM, Strain/Indicator: TA100, Metabolic Activation: RAT, LIVER, S-9, AROCLOR 1254) was “inactive; negative”, the mutagenic call [6] was “inactive; negative” and the mutagenic call (Test System: AMES SALMONELLA TYPHIMURIUM, Strain/Indicator: TA1535, Metabolic Activation: NONE) was “inactive; negative”. The mutagenic call (Test System: AMES SALMONELLA TYPHIMURIUM, Strain/Indicator: TA1535, Metabolic Activation: RAT, LIVER, S-9, AROCLOR 1254) was “inactive; negative”, the mutagenic call (Test System: AMES SALMONELLA TYPHIMURIUM, Strain/Indicator: TA1537, Metabolic Activation: NONE) was “inactive; negative” and the mutagenic call (Test System: AMES SALMONELLA TYPHIMURIUM, Strain/Indicator: TA1537, Metabolic Activation: RAT, LIVER, S-9, AROCLOR 1254) was “inactive; negative”.
